The values below come from the supplement of paper PMC10307832.

Assay in all cases: relative viability (nuclei count vs DMSO), 5 days (fraction); higher = more cells survive
Compound in experiment [1]: CC1=CC(=NN1)NC2=CC(=NC(=N2)/C=C/C3=CC=CC=C3)N4CCN(CC4)C + Cc1nc(Nc2ncc(C(=O)Nc3c(C)cccc3Cl)s2)cc(N2CCN(CCO)CC2)n1 [Dasatinib] (partner 0.075 µM)
The gist of the method: (§1)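 Nuclei were stained with Hoechst during a one-step fixation (final 0.05% Triton X-100, 1% formaldehyde, 1 ug/ml Hoechst) carried out 5 days after dosing, then counted on 4× images. The cells, lung cancer lines in 1536-well plates, had been dosed by pin tool the day after seeding with one drug alone or a fixed anchor-drug dose plus five library-drug doses (not always all listed) in √10 steps. Relative viability is the nuclei count in treated wells divided by that in vehicle wells, and each value is the median of duplicate plates.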

Compound in the experiment “Bortezomib + Lapatinib”: CC(C)C[C@H](NC(=O)[C@H](Cc1ccccc1)NC(=O)c1cnccn1)B(O)O [Bortezomib] + CS(=O)(=O)CCNCc1ccc(-c2ccc3ncnc(Nc4ccc(OCc5cccc(F)c5)c(Cl)c4)c3c2)o1 [Lapatinib] (partner 2 µM)
The gist of the method: as §1

Compound in the experiment “Bortezomib + Crizotinib”: CC(C)C[C@H](NC(=O)[C@H](Cc1ccccc1)NC(=O)c1cnccn1)B(O)O [Bortezomib] + C[C@@H](Oc1cc(-c2cnn(C3CCNCC3)c2)cnc1N)c1c(Cl)ccc(F)c1Cl [Crizotinib] (partner 1 µM)
In a few lines: as §1

Compound in experiment [2]: CC1=CC(=NN1)NC2=CC(=NC(=N2)/C=C/C3=CC=CC=C3)N4CCN(CC4)C + O=C(c1cc(Cc2n[nH]c(=O)c3ccccc23)ccc1F)N1CCN(C(=O)C2CC2)CC1 [Olaparib] (partner 8 µM)
The gist of the method:
as §1

Take HARA: the relative viability was found to be 0.26 in experiment [1] (first compound 0.08 µM); 0.236 in experiment [1] (first compound 0.253 µM); 0.221 in experiment [1] (first compound 0.8 µM); 0.183 in experiment [1] (first compound 2.53 µM); 0.0802 in experiment [1] (first compound 8 µM); 0.647 with Bortezomib + Lapatinib (first compound 0.0002 µM). Moreover, the relative viability amounted to 0.527 with Bortezomib + Lapatinib (first compound 0.000632 µM); 0.73 in the experiment with Bortezomib + Lapatinib (first compound 0.002 µM); 0.0694 with Bortezomib + Lapatinib (first compound 0.006325 µM); 0.0797 with Bortezomib + Lapatinib (first compound 0.02 µM); 0.961 in the experiment with Bortezomib + Crizotinib (first compound 0.0002 µM); 0.966 with Bortezomib + Crizotinib (first compound 0.000632 µM). Further, the relative viability with Bortezomib + Crizotinib (first compound 0.002 µM) was 0.789; with Bortezomib + Crizotinib (first compound 0.006325 µM), 0.0536; with Bortezomib + Crizotinib (first compound 0.02 µM) it was 0.067; in experiment [2] (first compound 0.08 µM), 0.617; in experiment [2] (first compound 0.253 µM) it was 1.01; in experiment [2] (first compound 0.8 µM), 0.582. For the same cell line, the results for the relative viability in experiment [2] (first compound 2.53 µM) and in experiment [2] (first compound 8 µM) were 0.121 and 0.099, respectively.
Regarding HCC-15, the relative viability in experiment [1] (first compound 0.08 µM) is 0.634; in experiment [1] (first compound 0.253 µM) it was 0.672; in experiment [1] (first compound 0.8 µM) it was 0.479; in experiment [1] (first compound 2.53 µM), 0.0991; in experiment [1] (first compound 8 µM), 0.0639; with Bortezomib + Lapatinib (first compound 0.0002 µM), 0.824. Also, the relative viability was determined as 0.943 with Bortezomib + Lapatinib (first compound 0.000632 µM); 0.817 with Bortezomib + Lapatinib (first compound 0.002 µM); 0.38 in the experiment with Bortezomib + Lapatinib (first compound 0.006325 µM); 0.0867 with Bortezomib + Lapatinib (first compound 0.02 µM); 0.784 with Bortezomib + Crizotinib (first compound 0.0002 µM); 0.825 with Bortezomib + Crizotinib (first compound 0.000632 µM). Moreover, the relative viability came out at 0.904 with Bortezomib + Crizotinib (first compound 0.002 µM); 0.46 in the experiment with Bortezomib + Crizotinib (first compound 0.006325 µM); 0.0815 with Bortezomib + Crizotinib (first compound 0.02 µM); 0.748 in experiment [2] (first compound 0.08 µM); 0.611 in experiment [2] (first compound 0.253 µM); 0.718 in experiment [2] (first compound 0.8 µM). Besides, the relative viability is 0.298 in experiment [2] (first compound 2.53 µM) and 0.113 in experiment [2] (first compound 8 µM).
For the cell line HCC-78, the relative viability was found to be 0.444 in experiment [1] (first compound 0.08 µM); 0.436 in experiment [1] (first compound 0.253 µM); 0.469 in experiment [1] (first compound 0.8 µM); 0.234 in experiment [1] (first compound 2.53 µM); 0.221 in experiment [1] (first compound 8 µM); 0.899 with Bortezomib + Lapatinib (first compound 0.0002 µM). Further, the relative viability in the experiment with Bortezomib + Lapatinib (first compound 0.000632 µM) stood at 0.791; with Bortezomib + Lapatinib (first compound 0.002 µM), 0.715; with Bortezomib + Lapatinib (first compound 0.006325 µM) it was 0.826; in the experiment with Bortezomib + Lapatinib (first compound 0.02 µM) it was 0.153; in the experiment with Bortezomib + Crizotinib (first compound 0.0002 µM) it was 0.365; with Bortezomib + Crizotinib (first compound 0.000632 µM), 0.328. For the same cell line, the relative viability was 0.299 in the experiment with Bortezomib + Crizotinib (first compound 0.002 µM); 0.148 with Bortezomib + Crizotinib (first compound 0.006325 µM); 0.174 with Bortezomib + Crizotinib (first compound 0.02 µM); 0.732 in experiment [2] (first compound 0.08 µM); 0.902 in experiment [2] (first compound 0.253 µM); 0.903 in experiment [2] (first compound 0.8 µM). Further, the relative viability in experiment [2] (first compound 2.53 µM) is 0.673; in experiment [2] (first compound 8 µM) it was 0.29.
Consider HCC-366, for which the relative viability stood at 0.708 in experiment [1] (first compound 0.08 µM); 0.645 in experiment [1] (first compound 0.253 µM); 0.544 in experiment [1] (first compound 0.8 µM); 0.0369 in experiment [1] (first compound 2.53 µM); 0.0193 in experiment [1] (first compound 8 µM); 0.861 with Bortezomib + Lapatinib (first compound 0.0002 µM). The relative viability in the experiment with Bortezomib + Lapatinib (first compound 0.000632 µM) was 1.01; with Bortezomib + Lapatinib (first compound 0.002 µM) it was 1.03; with Bortezomib + Lapatinib (first compound 0.006325 µM), 0.875; with Bortezomib + Lapatinib (first compound 0.02 µM), 0.0176; with Bortezomib + Crizotinib (first compound 0.0002 µM) it was 0.522; in the experiment with Bortezomib + Crizotinib (first compound 0.000632 µM), 0.682. Moreover, the relative viability with Bortezomib + Crizotinib (first compound 0.002 µM) is 0.598; with Bortezomib + Crizotinib (first compound 0.006325 µM), 0.275; in the experiment with Bortezomib + Crizotinib (first compound 0.02 µM), 0.0107; in experiment [2] (first compound 0.08 µM) it was 0.332; in experiment [2] (first compound 0.253 µM), 0.39; in experiment [2] (first compound 0.8 µM), 0.24. Also, the relative viability in experiment [2] (first compound 2.53 µM) was found to be 0.0237; in experiment [2] (first compound 8 µM), 0.0171.
